Test systems include SW-620 colon; A549 NSCLC; OVCAR-5 ovarian; EKVX NSCLC; SNB-75 CNS; HOP-62 NSCLC; U251 CNS; SK-MEL-28 melanoma; MDA-MB-231 breast; SR leukemia.
Holding throughout (assay): NCI-60 cell line screen, 48 h

Experimental findings from PubChem BioAssay (NCI) are described below.

Each structure is given as a SMILES string.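 Each compound was tested at five concentrations against cells in 96-well plates for 48 hours. Abbreviation: GI50, concentration required for 50% inhibition of growth. TGI denotes the concentration required for complete inhibition of growth.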

On to `N#Cc1c(-c2ccc(Cl)cc2)n(O)c2ccccc12`, for which the GI50 is 0.996 µM with SW-620 colon; 2.6 µM with A549 NSCLC; 4.08 µM with OVCAR-5 ovarian; 3.11 µM with EKVX NSCLC; 1.21 µM in the assay with SNB-75 CNS; 2.23 µM in the assay on HOP-62 NSCLC. The GI50 with U251 CNS is 1.9 µM; with SK-MEL-28 melanoma, 1.42 µM; in the assay with MDA-MB-231 breast it was 1.51 µM. Also, the TGI is 13.2 µM with SW-620 colon; 11.9 µM with A549 NSCLC; greater than 100 µM with OVCAR-5 ovarian; 15.7 µM in the assay with EKVX NSCLC; 4.44 µM in the assay with SNB-75 CNS; 7.9 µM in the assay with HOP-62 NSCLC. In addition, the TGI stood at 7.06 µM in the assay on U251 CNS, 26.4 µM with SK-MEL-28 melanoma and 4.38 µM in the assay on MDA-MB-231 breast.

`Cc1cc2cc3cc(C)c(N(C)C)cc3nc2cc1N(C)C`: the GI50 with SW-620 colon is 3.1 µM; in the assay on A549 NSCLC, 3 µM; with OVCAR-5 ovarian, 8.37 µM; in the assay on SNB-75 CNS, 2.35 µM; in the assay on HOP-62 NSCLC, 5.08 µM; in the assay on U251 CNS it was 1.42 µM. In addition, the GI50 in the assay on SK-MEL-28 melanoma is 2.8 µM; in the assay on MDA-MB-231 breast, 2.33 µM. The TGI is 26.6 µM with SW-620 colon; greater than 100 µM in the assay on A549 NSCLC; greater than 100 µM in the assay with OVCAR-5 ovarian; 20.1 µM in the assay on SNB-75 CNS; 19.9 µM in the assay on HOP-62 NSCLC; greater than 100 µM with U251 CNS. Besides, the TGI stood at 9.55 µM with SK-MEL-28 melanoma and 7.59 µM with MDA-MB-231 breast.

As for `Cc1ccc(NC(=O)c2cccc([N+](=O)[O-])c2O)c([N+](=O)[O-])c1`, the TGI in the assay on SW-620 colon worked out at 39.5 µM; with A549 NSCLC, 68 µM; in the assay on OVCAR-5 ovarian, 39.4 µM; with EKVX NSCLC it was 48.4 µM; in the assay on SNB-75 CNS, 29.4 µM; with HOP-62 NSCLC, 37.6 µM. In addition, the TGI in the assay on U251 CNS worked out at 38.9 µM; in the assay on SK-MEL-28 melanoma, 32 µM.

Turning to `Cc1cc(N(CCC#N)S(C)(=O)=O)ccc1C=O`, the TGI in the assay with SW-620 colon, with A549 NSCLC, in the assay with OVCAR-5 ovarian, with SNB-75 CNS, with HOP-62 NSCLC and with U251 CNS was greater than 100 µM throughout. The TGI in the assay with SR leukemia and with SK-MEL-28 melanoma was greater than 100 µM each time.

As to `CC(=O)c1c(C(F)(F)F)n([O-])c2ccc(Cl)cc2[n+]1=O`, the GI50 in the assay on SW-620 colon is 1.17 µM; in the assay with A549 NSCLC, 2.5 µM; in the assay with OVCAR-5 ovarian, 2.74 µM; in the assay with EKVX NSCLC, 0.818 µM; with SNB-75 CNS it was 1.69 µM; with HOP-62 NSCLC it was 0.49 µM. Moreover, the GI50 is 0.772 µM in the assay with U251 CNS, 1.97 µM with SK-MEL-28 melanoma and 1.3 µM in the assay on MDA-MB-231 breast. Besides, the TGI is 11.6 µM with A549 NSCLC; 18.6 µM in the assay with OVCAR-5 ovarian; 2.29 µM with EKVX NSCLC; 8.38 µM with SNB-75 CNS; 1.86 µM with HOP-62 NSCLC; 4.89 µM in the assay with U251 CNS. For the same compound, the TGI amounted to 6.31 µM with SK-MEL-28 melanoma and 3.27 µM in the assay with MDA-MB-231 breast.

Regarding `O=C(CC1(O)C(=O)Nc2ccccc21)c1ccccc1Cl` (configuration not stated), the TGI with SW-620 colon, in the assay with A549 NSCLC, in the assay on OVCAR-5 ovarian, with EKVX NSCLC, in the assay on SNB-75 CNS and with SK-MEL-28 melanoma was greater than 100 µM throughout.

On to `CC1C[C@H](OC(N)=O)C(C)CC1=O` (some centres not stated), for which the TGI in the assay with SW-620 colon, with A549 NSCLC, in the assay on OVCAR-5 ovarian, in the assay on EKVX NSCLC, in the assay on SNB-75 CNS and in the assay with HOP-62 NSCLC was greater than 100 µM throughout. This compound displayed a TGI in the assay with U251 CNS greater than 100 µM.

For the compound `CCCN(CCCC(NC(C)=O)C(=O)NCc1ccccc1)C(=O)NC` (configuration not stated), the TGI is greater than 100 µM in the assay with SW-620 colon; greater than 100 µM in the assay on A549 NSCLC; greater than 100 µM in the assay with OVCAR-5 ovarian; greater than 100 µM in the assay with EKVX NSCLC; 75.3 µM in the assay with SNB-75 CNS; greater than 100 µM in the assay on HOP-62 NSCLC. The TGI in the assay on U251 CNS and in the assay on SK-MEL-28 melanoma was greater than 100 µM each time.

On to `Cc1cccc(Oc2nccc(-c3c(-c4ccc(F)cc4)ncn3C3CCNCC3)n2)c1C`, for which the GI50 in the assay on SW-620 colon is 7.81 µM; in the assay with A549 NSCLC it was greater than 14.3 µM; in the assay with OVCAR-5 ovarian it was 8.62 µM; in the assay on EKVX NSCLC, greater than 14 µM; with SNB-75 CNS it was 5.58 µM; in the assay with HOP-62 NSCLC, 4.84 µM. The figures for the GI50 in the assay on U251 CNS, in the assay on SK-MEL-28 melanoma and with MDA-MB-231 breast were 7.28 µM, 4.65 µM and 5.42 µM, respectively. Also, the TGI was greater than 14.3 µM with SW-620 colon; greater than 25 µM with A549 NSCLC; greater than 25 µM with OVCAR-5 ovarian; greater than 25 µM in the assay on EKVX NSCLC; greater than 17.5 µM in the assay on SNB-75 CNS; 9.56 µM in the assay with HOP-62 NSCLC. For the same compound, the TGI in the assay with U251 CNS is greater than 22.6 µM; in the assay with SK-MEL-28 melanoma, 9.48 µM; in the assay with MDA-MB-231 breast, 13.9 µM.

For `CSC(C1c2ccccc2N(C)C2=NC(=O)N(C)C(=O)C21Cl)S(=O)(=O)c1ccc(C)cc1` (configuration not stated), the TGI in the assay on SW-620 colon was 71.1 µM; with A549 NSCLC, greater than 100 µM; in the assay with OVCAR-5 ovarian, greater than 100 µM; in the assay on EKVX NSCLC it was greater than 100 µM; in the assay with SNB-75 CNS, 75.9 µM; in the assay on HOP-62 NSCLC, greater than 100 µM. Further, the figures for the TGI in the assay with U251 CNS and in the assay on SK-MEL-28 melanoma were greater than 100 µM and 75.4 µM, respectively.

In the case of `CCOC(=O)N1CCc2cc(OC)c(OC)c3c2C1CC3=O` (configuration not stated), the TGI in the assay with SW-620 colon, in the assay on A549 NSCLC, in the assay with OVCAR-5 ovarian, in the assay on SNB-75 CNS, in the assay with HOP-62 NSCLC and in the assay with U251 CNS was greater than 100 µM in each case. In the assay with SR leukemia, this compound displayed a TGI greater than 100 µM.

For `CN1C2(c3ccccc3)c3c(-c4ccccc4)sc(-c4ccccc4)c3C1(c1ccccc1)C1C(=O)N(c3ccccc3)C(=O)C12` (configuration not stated), the TGI in the assay on SW-620 colon, with A549 NSCLC, in the assay on OVCAR-5 ovarian, with EKVX NSCLC, in the assay with SNB-75 CNS and with HOP-62 NSCLC was greater than 100 µM throughout. The TGI in the assay with U251 CNS and in the assay on SK-MEL-28 melanoma was greater than 100 µM in each case.

As to `COc1ccc(C(O)/C(=N\NC(N)=S)c2nc3ccc([N+](=O)[O-])cc3[nH]c2=O)cc1OC` (configuration not stated), the TGI with SW-620 colon, in the assay with A549 NSCLC, in the assay with OVCAR-5 ovarian, with EKVX NSCLC, in the assay on SNB-75 CNS and with HOP-62 NSCLC was greater than 100 µM throughout. Besides, the TGI with U251 CNS and in the assay with SK-MEL-28 melanoma was greater than 100 µM throughout.
